In patent publication US8273775B2, “Non-steroidal brassinosteroid mimetic” (priority 2006, dated 2012):

System: gene expression in Col-0 seedling shoots
Experiment: Microarray analysis (ATH1 Affymetrix) after BL or abrasin treatment
Assay type: in vivo, Arabidopsis
Conditions: 120 min
Method: FIG. 14: Clustering of gene expression profiles by QT-clust analysis. Clusters illustrating the major patterns of the data sets. Points: BIK-30: 30 μM abrasin 30 min; BL-30: 1 μM brassinolide 30 min; DMSO-30: control DMSO 30 min; BIK-120: 30 μM abrasin 120 min; BL-120: 1 μM brassinolide 120 min; DMSO-120: control DMSO 120 min.
Col-0 seeds were germinated vertically on ½ MS medium for 7 days under 16 h light/8 h dark cycles. The seedlings were overlaid with liquid ½ MS medium containing 1 μM brassinolide (BL, Fuji Chemical Industries, Ltd., Toyama, Japan), 30 μM abrasin (BIK, ChemBridge Corporation) and DMSO and treated for 30 and 120 min. The shoot parts were collected for RNA isolation. All sampling points were performed in three independent experiments. RNA was extracted using RNeasy kit (Qiagene). […] total RNA per array was used to hybridise the ATH1 Affymetrix Arabidopsis arrays according to standard procedure. The overrepresentation analyses were performed using BiNGO software (Maere et al., 2005).
We performed a microarray analysis using the Arabidopsis whole genome chip (Affymetix) to determine whether abrasin activated the expression of BR-inducible genes at transcriptional level. Wild-type Col-0 seedlings were exposed to 1 μM BL, 30 μM ABRASIN and DMSO (mock-treatment) for two time points (30 min and 120 min) and the shoot parts were collected for RNA isolation. The analysis of the variance of the normalized gene expression data took in account the variability parameters affecting the expression level: type of hormone treatment, duration of treatment and the interaction between these two.

O=C(O)CCC(=O)Nc1ccc(Br)cn1 [abrasin, 4-[(5-bromo-2-pyridinyl)amino]-4-oxobutanoic acid]
Fold-change AT4G16780 homeobox-leucine zipper protein 4 (HAT4)/HD-ZIP protein: 0.42
Fold-change AT4G17250 expressed protein: 3.32
Fold-change AT4G17460 homeobox-leucine zipper protein 1 (HAT1)/HD-ZIP protein 1: 0.11
Fold-change AT4G21510 F-box family protein: 2.54
Fold-change AT4G23030 MATE efflux protein-related: 5.25
Fold-change AT4G23070 rhomboid family protein: 3.80
Fold-change AT4G23810 WRKY family transcription factor: 1.00
Fold-change AT4G24160 hydrolase, alpha/beta fold family protein: 2.29
Fold-change AT4G25620 hydroxyproline-rich glycoprotein family protein: 0.49
Fold-change AT4G25780 pathogenesis-related protein: 0.18
Fold-change AT4G27970 C4-dicarboxylate transporter/malic acid transport family protein: 3.04
Fold-change AT4G28240 wound-responsive protein-related: 0.33
Fold-change AT4G28490 leucine-rich repeat transmembrane protein kinase, putative: 2.30
Fold-change AT4G28703 expressed protein: 6.14
Fold-change AT4G28780 GDSL-motif lipase/hydrolase family protein: 1.26
Fold-change AT4G29070 expressed protein: 0.50
Fold-change AT4G30080 transcriptional factor B3 family protein: 0.41
Fold-change AT4G31020 expressed protein: 5.81
Fold-change AT4G32280 auxin-responsive AUX/IAA family protein (IAA29): 0.13
Fold-change AT4G33050 calmodulin-binding family protein: 1.58
Fold-change AT4G33700 CBS domain-containing protein: 0.38
Fold-change AT4G34610 homeodomain-containing protein: 0.41
Fold-change AT4G36110 auxin-responsive protein: 4.62
Fold-change AT4G36780 brassinosteroid signalling positive regulator-related: 0.03
Fold-change AT4G37240 expressed protein: 1.45
Fold-change AT4G37290 expressed protein: 2.45
Fold-change AT4G37590 phototropic-responsive NPH3 family protein: 0.43
Fold-change AT4G38840 auxin-responsive protein (SAUR14): 1.95
Fold-change AT4G38850 auxin-responsive protein (SAUR-AC1): 2.22
Fold-change AT4G38860 auxin-responsive protein (SAUR16): 2.27
Fold-change AT4G39400 brassinosteroid insensitive 1 (BRI1): 0.46
Fold-change AT5G02020 expressed protein: 2.29
Fold-change AT5G05690 cytochrome P450 90A1 (CYP90A1) (CYP90) (CPD): 0.29
Fold-change AT5G07690 myb family transcription factor (MYB29): 0.27
Fold-change AT5G08130 basic helix-loop-helix (bHLH) family protein (BIM2): 0.37
Fold-change AT5G12050 expressed protein: 0.27
Fold-change AT5G13180 no apical meristem (NAM) family protein: 0.39
Fold-change AT5G13740 sugar transporter family protein: 0.23
Fold-change AT5G14730 expressed protein: 0.53
Fold-change AT5G16200 50S ribosomal protein-related: 0.10
Fold-change AT5G16980 NADP-dependent oxidoreductase: 3.07
Fold-change AT5G18750 DNAJ heat shock N-terminal domain-containing protein: 1.26
Fold-change AT5G19200 short-chain dehydrogenase/reductase (SDR) family protein: 1.11
Fold-change AT5G19340 expressed protein: 0.23
Fold-change AT5G24030 C4-dicarboxylate transporter/malic acid transport family protein: 1.66
Fold-change AT5G24660 expressed protein: 3.61
Fold-change AT5G25240 expressed protein: 2.16
Fold-change AT5G25930 leucine-rich repeat family protein: 1.38
Fold-change AT5G27350 sugar-porter family protein 1 (SFP1): 1.56
Fold-change AT5G27670 histone H2A: 0.41
Fold-change AT5G38310 expressed protein: 1.88
Fold-change AT5G38990; AT5G39000 [AT5G38990, protein kinase family protein: 2.08
Fold-change AT5G39050 transferase family protein: 1.83
Fold-change AT5G39610 no apical meristem (NAM) family protein: 0.35
Fold-change AT5G39970 expressed protein: 2.66
Fold-change AT5G42830 transferase family protein: 2.74
Fold-change AT5G47370 homeobox-leucine zipper protein 2 (HAT2): 0.43
Fold-change AT5G48070 putative xyloglucan endotransglycosylase/hydrolase: 3.63
Fold-change AT5G48540 33 kDa secretory protein-related: 2.03
Fold-change AT5G51550 phosphate-responsive 1 family protein: 0.41
Fold-change AT5G54490 calcium-binding EF-hand protein, putative: 3.06
Fold-change AT5G54860 integral membrane transporter family protein: 2.01
Fold-change AT5G55970 zinc finger (C3HC4-type RING finger) family protein: 2.56
Fold-change AT5G56980 expressed protein: 0.22
Fold-change AT5G57190 phosphatidylserine decarboxylase: 1.58
Fold-change AT5G57780 expressed protein: 0.13
Fold-change AT5G59080 expressed protein: 0.40
Fold-change AT5G60200 Dof-type zinc finger domain-containing protein: 3.85
Fold-change AT5G60270 lectin protein kinase family protein: 2.56
Fold-change AT5G60630 expressed protein: 2.20
Fold-change AT5G61600 encodes a member of the ERF (ethylene response factor): 2.04
Fold-change AT5G62360 invertase/pectin methylesterase inhibitor family protein: 0.25
Fold-change AT5G65310 homeobox-leucine zipper protein 5 (HB-5)/HD-ZIP transcription factor 5: 0.20
Fold-change AT5G66420 expressed protein: 0.42
Fold-change AT5G66590 allergen V5/Tpx-1-related family protein: 0.31
Fold-change AT5G67450 zinc finger (C2H2 type) protein 1 (AZF1): 1.82
Fold-change of gene AT4G16140 (proline-rich family protein) (245479_at, Cluster 6): 1.51
Fold-change of gene AT4G15260 (UDP-glucoronosyl/UDP-glucosyl transferase family protein) (245543_at, Cluster 7): 1.52
Fold-change of gene AT5G09440 (phosphate-responsive protein, putative) (245885_at, Cluster 5): 0.13
Fold-change of gene AT1G77380 (amino acid carrier) (246389_at, Cluster 10): 0.99
Fold-change of gene AT5G15740 (expressed protein) (246516_at, Cluster 5): 0.49
Fold-change of gene AT5G65300 (expressed protein) (247177_at, Cluster 5): 0.25
Fold-change of gene AT5G64890 (expressed protein) (247205_at, Cluster 10): 2.18
Fold-change of gene AT5G63790 (no apical meristem (NAM) family protein) (247351_at, Cluster 9): 0.69
Fold-change of gene AT5G62630 (expressed protein) (247444_at, Cluster 7): 2.28
Fold-change of gene AT5G60850 (Dof-type zinc finger domain-containing protein) (247601_at, Cluster 10): 0.64
Fold-change of gene AT5G59510 (expressed protein) (247704_at, Cluster 9): 0.60
Fold-change of gene AT5G58660 (oxidoreductase. 2OG-Fe(II) oxygenase family protein) (247774_at, Cluster 5): 2.15
Fold-change of gene AT5G54120 (expressed protein) (248190_at, Cluster 5): 0.38
Fold-change of gene AT5G54130 (calcium-binding EF hand family protein) (248191_at, Cluster 5): 0.31
Fold-change of gene AT5G52900 (expressed protein) (248282_at, Cluster 6): 0.96
Fold-change of gene AT5G49100 (expressed protein) (248646_at, Cluster 9): 0.62
Fold-change of gene AT5G18060 (auxin-responsive protein) (250012_x_at, Cluster 6): 0.46
Fold-change of gene AT5G09800 (U-box domain-containing protein) (250493_at, Cluster 9): 0.80
Fold-change of gene AT5G08565 (expressed protein) (250537_at, Cluster 8): 0.41
Fold-change of gene AT5G03670 (expressed protein) (250907_at, Cluster 5): 0.32
Fold-change of gene AT5G01740 (expressed protein) (251072_at, Cluster 5): 0.34
Fold-change of gene AT3G63380 (calcium-transporting ATPase) (251176_at, Cluster 10): 0.11
Fold-change of gene AT3G60690 (auxin-responsive family protein) (251342_at, Cluster 9): 0.29
Fold-change of gene AT3G45610 (Dof-type zinc finger domain) (252586_at, Cluster 10): 2.56
Fold-change of gene AT3G44610 (protein kinase family protein) (252646_at, Cluster 5): 0.38
Fold-change of gene AT4G34760 (auxin-responsive family protein) (253255_at, Cluster 6): 1.61
Fold-change of gene AT4G34138 (UDP-glucoronosyl/UDP-glucosyl transferase family protein) (253281_at, Cluster 7): 3.16
Fold-change of gene AT4G31910 (transferase family protein) (253483_at, Cluster 5): 1.60
Fold-change of gene AT4G30410 (expressed protein) (253617_at, Cluster 5): 0.45
Fold-change of gene AT4G30450 (glycine-rich protein) (253629_at, Cluster 5): 0.39
Fold-change of gene AT4G26200 (1-aminocyclopropane-1-carboxylate synthase) (253999_at, Cluster 9): 0.24
Fold-change of gene AT4G03400 (auxin-responsive GH3 family protein) (255403_at, Cluster 6): 0.77
Fold-change of gene AT4G02700 (sulfate transporter) (255443_at, Cluster 7): 2.16
Fold-change of gene AT1G22190 (AP2 domain-containing transcription factor) (255926_at, Cluster 8): 0.50
Fold-change of gene AT1G66140 (zinc finger (C2H2 type) family protein) (256528_at, Cluster 6): 0.61
Fold-change of gene AT3G25655 (expressed protein) (256762_at, Cluster 8): 0.15
Fold-change of gene AT3G21420 (oxidoreductase, 2OG-Fe(II) oxygenase family protein) (256818_at, Cluster 7): 2.39
Fold-change of gene AT3G18280 (protease inhibitor/seed storage/lipid transfer protein) (257066_at, Cluster 5): 0.39
Fold-change of gene AT1G29440 (auxin-responsive family protein) (257506_at, Cluster 6): 0.47
Fold-change of gene AT3G29200 (chorismate mutase, chloroplast (CM1)) (257746_at, Cluster 5): 0.49
Fold-change of gene AT1G13260 (DNA-binding protein RAV1 (RAV1)) (259364_at, Cluster 8): 0.46
Fold-change of gene AT1G29500 (auxin-responsive protein) (259773_at, Cluster 6): 0.61
Fold-change of gene AT1G29510 (auxin-responsive protein) (259783_at, Cluster 6): 0.50
Fold-change of gene AT1G29450 (auxin-responsive protein) (259784_at, Cluster 6): 0.61
Fold-change of gene AT1G29460 (auxin-responsive protein) (259787_at, Cluster 6): 0.44
Fold-change of gene AT1G76690; AT1G76680 ([AT1G76690, 12-oxophytodienoate reductase (OPR2)) (259875_s_at, Cluster 7): 6.14
Fold-change of gene AT1G76620 (expressed protein) (259985_at, Cluster 8): 0.28
Fold-change of gene AT1G63720 (expressed protein) (260243_at, Cluster 10): 0.16
Fold-change of gene AT1G48100 (glycoside hydrolase family 28 protein) (260727_at, Cluster 8): 0.38
Fold-change of gene AT1G12200 (flavin-containing monooxygenase family protein) (261023_at, Cluster 7): 2.20
Fold-change of gene AT1G12845 (expressed protein) (261203_at, Cluster 6): 2.71
Fold-change of gene AT1G15550 (gibberellin 3-beta-dioxygenase) (261768_at, Cluster 6): 1.17
Fold-change of gene AT1G80840 (WRKY family transcription factor) (261892_at, Cluster 9): 0.20
Fold-change of gene AT1G80080 (leucine-rich repeat family protein) (262040_at, Cluster 6): 2.07
Fold-change of gene AT1G80130 (expressed protein) (262050_at, Cluster 8): 0.18
Fold-change of gene AT1G21680 (expressed protein) (262505_at, Cluster 10): 2.01
Fold-change of gene AT1G34245 (expressed protein) (262543_at, Cluster 6): 5.18
Fold-change of gene AT1G78460 (SOUL heme-binding family protein) (263126_at, Cluster 7): 2.50
Fold-change of gene AT1G78820; AT1G78830 ([AT1G78820, curculin-like (mannose-binding) lectin family protein) (264279_s_at, Cluster 7): 1.84
Fold-change of gene AT2G42380 (bZIP transcription factor family protein) (265877_at, Cluster 6): 0.80
Fold-change of gene AT2G45080 (cyclin family protein) (266124_at, Cluster 8): 0.10
